In test [1] the test system is S. aureus 3798 (VISA). As to the kind of experiment: MIC, broth micro-dilution, Gram-positive clinical isolate (VISA). The format is cell-based, Staphylococcus aureus. Conditions: Mueller Hinton broth, inoculum 5 × 10^5 CFU/mL, 24 h at 36 °C. Here is the method:
(§1) We performed a study of antibacterial activity of the synthesized compounds 17 on a panel of clinical isolates of the Gram-positive microorganisms S. haemolyticus 602, S. aureus 3798 (VISA), and Enterococcus faecalis 560 (Van A) and against the Gram-negative strain Escherichia coli 25922 ATCC by the MTT method (Table 1).
(§2) The in vitro study was performed according to the recommendations of the European Committee on Antimicrobial Susceptibility testing. The MIC values for Gram-positive and Gram-negative bacterial strains were determined by the broth micro-dilution method using Mueller Hinton broth (Acumedia Manufacturers Inc., Lansing, MI, USA) and the National Committee for Clinical Laboratory Standards procedures as described earlier.

Test [2] has as its system Gram-positive bacteria. Particulars: compared with vancomycin; cited from earlier work. An excerpt:
Another antibiotic drug of this class, eremomycin (2), was discovered at the Gause Institute of New Antibiotics. It was isolated from Amycolatopsis orientalis subsp.

Test [3] relates to Enterococcus faecalis 560 (Van A). As to the kind of experiment: MIC, broth micro-dilution, Gram-positive clinical isolate (Van A). Format: cell-based. Conditions: Mueller Hinton broth, inoculum 5 × 10^5 CFU/mL, 24 h at 36 °C. Here is the method:
as §1, §2

For test [4], the system named is Escherichia coli 25922 ATCC. As to the kind of experiment: MIC, broth micro-dilution, Gram-negative strain. Conditions: Mueller Hinton broth, inoculum 5 × 10^5 CFU/mL, 24 h at 36 °C. The format is cell-based. Here is the method:
as §1, §2

Test [5] has as its system S. haemolyticus 602. As to the kind of experiment: MIC, broth micro-dilution, Gram-positive clinical isolate. Conditions: Mueller Hinton broth, inoculum 5 × 10^5 CFU/mL, 24 h at 36 °C. Format: cell-based, Staphylococcus haemolyticus. Here is the method:
as §1, §2

≈ marks a conversion by molar mass, not a printed value.

With `CN[C@H](CC(C)C)C(=O)N[C@H]1C(=O)N[C@@H](CC(N)=O)C(=O)N[C@H]2C(=O)N[C@H]3C(=O)N[C@H](C(=O)N[C@@H](C(=O)O)c4cc(O)cc(O)c4-c4cc3ccc4O)[C@H](O[C@@H]3C[C@@](C)(N)[C@H](O)[C@@H](C)O3)c3ccc(cc3)Oc3cc2cc(c3O[C@H]2O[C@@H](CO)[C@H](O)[C@@H](O)[C@@H]2O[C@H]2C[C@](C)(N)[C@@H](O)[C@H](C)O2)Oc2ccc(cc2Cl)[C@H]1O` (stereo in doubt) [Eremomycin (2), Eremomycin], the “MIC (Minimum Inhibitory Antibiotic Concentration), S. aureus 3798 (VISA)” value in test [1] was 16 µg/mL (≈ 10.3 µM). The “efficacy against Gram-positive bacteria relative to vancomycin” value in test [2] is listed as “three to five times higher”. Besides, the “MIC (Minimum Inhibitory Antibiotic Concentration), E. faecalis 560 (Van A)” value in test [3] was above 64 µg/mL. In addition, the “MIC (Minimum Inhibitory Antibiotic Concentration), E. coli 25922 ATCC” value is recorded as 64 µg/mL (≈ 41.1 µM) in test [4] and above 64 µg/mL in test [4] (listed as 2). In addition, in test [5], the “MIC (Minimum Inhibitory Antibiotic Concentration), S. haemoliticus 602” value is 0.25 µg/mL (≈ 0.16 µM).

Consider `NC1CC(NC(=O)OCc2ccccc2)C(OC2OC(CNC(=O)OCc3ccccc3)C(O)C(O)C2O)C(O)C1OC1OC(CO)C(O)C(N)C1O` (centres unmarked) [Compound 4, 3,6′-Di-Benzyloxycarbonyl-Kanamycin A], for which the “MIC (Minimum Inhibitory Antibiotic Concentration), E. coli 25922 ATCC” value in test [4] is reported as above 64 µg/mL.

In the case of “3,6′-Di-Cbz-Kanamycinyl A 1-Amide of Eremomycin [Compound 6]”, in test [1], the “MIC (Minimum Inhibitory Antibiotic Concentration), S. aureus 3798 (VISA)” value came to 4 µg/mL. Also, in test [3], the “MIC (Minimum Inhibitory Antibiotic Concentration), E. faecalis 560 (Van A)” value is reported as 8 µg/mL. In addition, the “MIC (Minimum Inhibitory Antibiotic Concentration), E. coli 25922 ATCC” value in test [4] is on record as above 64 µg/mL.

For the compound “3,6′-Di-Cbz-Kanamycinyl A 1-Amide of Vancomycin [Compound 5]”, the “MIC (Minimum Inhibitory Antibiotic Concentration), S. aureus 3798 (VISA)” value in test [1] is listed as 2 µg/mL. For the same compound, the “MIC (Minimum Inhibitory Antibiotic Concentration), E. faecalis 560 (Van A)” value in test [3] was 32 µg/mL. Moreover, the “MIC (Minimum Inhibitory Antibiotic Concentration), E. coli 25922 ATCC” value in test [4] is above 64 µg/mL.

Take `CN[C@H](CC(C)C)C(=O)N[C@H]1C(=O)N[C@@H](CC(N)=O)C(=O)N[C@H]2C(=O)N[C@H]3C(=O)N[C@H](C(=O)N[C@H](C(=O)O)c4cc(O)cc(O)c4-c4cc3ccc4O)[C@H](O)c3ccc(c(Cl)c3)Oc3cc2cc(c3O[C@@H]2O[C@H](CO)[C@@H](O)[C@H](O)[C@H]2O[C@H]2C[C@](C)(N)[C@H](O)[C@H](C)O2)Oc2ccc(cc2Cl)[C@H]1O` [Vancomycin (1), Vancomycin]: in test [1], the “MIC (Minimum Inhibitory Antibiotic Concentration), S. aureus 3798 (VISA)” value is given as 8 µg/mL (≈ 5.52 µM). The “MIC (Minimum Inhibitory Antibiotic Concentration), E. faecalis 560 (Van A)” value in test [3] is listed as above 64 µg/mL. The “MIC (Minimum Inhibitory Antibiotic Concentration), E. coli 25922 ATCC” value in test [4] and in test [4] (listed as 1) was above 64 µg/mL throughout. For the same compound, the “MIC (Minimum Inhibitory Antibiotic Concentration), S. haemoliticus 602” value in test [5] is given as 1 µg/mL (≈ 0.69 µM).

With “Kanamycinyl A 1-Amide of Eremomycin [Compound 7]”, the “MIC (Minimum Inhibitory Antibiotic Concentration), S. aureus 3798 (VISA)” value in test [1] is recorded as 2 µg/mL. In addition, the “MIC (Minimum Inhibitory Antibiotic Concentration), E. faecalis 560 (Van A)” value in test [3] is 32 µg/mL. Further, in test [4], the “MIC (Minimum Inhibitory Antibiotic Concentration), E. coli 25922 ATCC” value is on record as above 64 µg/mL. Besides, in test [5], the “MIC (Minimum Inhibitory Antibiotic Concentration), S. haemoliticus 602” value is 0.25 µg/mL.

With Kanamycin A [Kanamycin A (3)], the “MIC (Minimum Inhibitory Antibiotic Concentration), E. coli 25922 ATCC” value in test [4] is recorded as 4 µg/mL.

These data come from publication PMC10215198, “Antibacterial Conjugates of Kanamycin A with Vancomycin and Eremomycin: Biological Activity and a New MS-Fragmentation Pattern of Cbz-Protected Amines” (Antibiotics, 2023).
